# In US12291504B2 (University of Pittsburgh—Of the Commonwealth System of …, priority 2018, dated 2025):
# Where two headings read alike, the source gives them in different places.
# Columns and labels:
# Set-up in all cases: Wild-type and mutant SULT1A3 coding regions were inserted into a pGEX-6P expression vector; N-His/GST/MBP triple-tag (N, cleaved yes); made in house; host or cells: E. coli BL21(DE3)
# SULT1A3 [1] = target: T1, SULT1A3 (Homo sapiens, UniProt P0DMM9); assay: Equilibrium binding studies, SULT1A3 intrinsic fluorescence titration
# T1 sequence (P0DMM9 whole entry): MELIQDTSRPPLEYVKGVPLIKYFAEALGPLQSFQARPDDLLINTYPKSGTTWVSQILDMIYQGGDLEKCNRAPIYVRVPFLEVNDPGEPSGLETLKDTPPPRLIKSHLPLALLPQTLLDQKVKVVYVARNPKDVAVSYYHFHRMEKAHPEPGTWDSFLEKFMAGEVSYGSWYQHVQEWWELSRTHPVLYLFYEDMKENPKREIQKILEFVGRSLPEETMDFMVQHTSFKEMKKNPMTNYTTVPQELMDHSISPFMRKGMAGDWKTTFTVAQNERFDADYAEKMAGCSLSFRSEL
# Experimental: 4-Tam binding affinities were determined in the absence and presence of saturating PAP. Binding was monitored via ligand-induced changes in SULT1A3 intrinsic florescence (λex=290 nm, λem=340 nm). Fluorescence intensities are normalized relative to [4-Tam]=0. Each data-point is the average of two independent determinations. Conditions: SULT (150 nM, active sites), PAP (0 or 0.50 mM), KPO4 (50 mM), pH 7.5, 25±2° C. The line through the data represents the least-squares best fit to a model that assumes a binding stoichiometry of one 4-Tam per subunit.
# Equilibrium Binding Studies. In all cases, ligand binding to SULT1A3 was monitored via changes in the intrinsic fluorescence of the enzyme (λex=290 nm, λem=340 nm). Conditions: SULT (50 nM, active sites), KPO4 (50 mM), pH 7.5, 25±2° C. Titrations were performed in triplicate. Data were averaged and least-squares fit using a model that assumes a single binding site per monomer (29-31). Ligand concentration was varied from 0.10-40×Kd.
# As is seen in Eq. 6, Kiso and kcat ratios approach equivalence as Kiso becomes >>1. To assess the extent to which this equivalence holds for SULT1A3, Kiso values were determined as described previously (29-33). In short—As nucleotide binds and the cap closes, a pore forms at the acceptor-binding site. The affinity of an acceptor that is too large to pass through the pore is diminished by the presence of nucleotide, which fosters cap closure. At saturating nucleotide, the apparent affinity, Kapp, of such acceptors for the fully cap-closed enzyme is given by Equation 7 (29-33), where Kd is the affinity for the cap-open (nucleotide-free) form of the enzyme. Kapp=Kd×(1+Kiso) (7) Kapp and Kd were obtained by fitting titrations that monitor changes in SULT1A3 intrinsic fluorescence as a function of the concentration of 4-hydroxytamoxifen, a large acceptor (29) (see, FIG. 2). Titrations were performed at 0 and saturating PAP (0.50 mM, 17×Kd).
# SULT1A3 [2] = target: T1, SULT1A3; assay: SULT1A3 inhibition studies, 1-HP initial-rate fluorescence assay; format: biochemical; conditions: Ki could not be determined
# Experimental: The initial rates of SULT catalyzed 1-HP sulfonation are plotted as a function of inhibitor concentration, and are normalized relative to [inhibitor]=0. Enzyme activity was monitored by the sulfonation dependent change in 1-HP fluorescence (λex=325 nm, λem=370 nm). Less than 5% of the concentration-limiting substrate converted at the reaction endpoint was consumed during initial-rate measurements. Each point is the average of three independent determinations. Conditions: SULT (20 nM, active sites), PAPS (0.50 mM, 17×Km), 1-HP (5.0 μM, 61×Km), KPO4 (50 mM), pH 7.5, 25±2° C.
# (§1) Initial-Rate Studies. Initial-rate parameters for the labeled or mutant SULT1A3 constructs were determined using a previously described 1-HP assay (25). Briefly, reactions were initiated by addition of PAPS (0.50 mM, 17×Km) to a solution containing enzyme (20 nM, active sites), 1-HP (2.0 μM, ˜24×Km), and KPO4 (50 mM), pH 7.5, 25±2° C. Reactions were monitored via fluorescence change associated with the conversion of 1-HP to 1-HP-S (λex=325 nm, λem=370 nm). Keq for the 1-HP sulfonation reaction is −250. Given the reaction conditions outlined above, ≥99% of 1-HP is converted to 1-HP-S, and ˜0.4% of PAPS is converted to PAP at equilibrium. […] Reaction progress curves were analyzed to obtain initial-rate parameters as described previously (26,27).
# Inhibition studies. Inhibition parameters were determined under conditions identical to those described above (see, Initial-Rate Studies) except that [1-HP] was increased to 5.0 μM (˜61×Km) and inhibitor concentration was varied between 0.20-20×Ki. Ki was obtained using a least-squares fit to the following partial inhibition equation (25,28): v=kcat·(Ki+(1/kcat inh)·[I])/(Ki+[I]), where kcat inh is enzyme turnover at saturating substrates and allosteric inhibitor.
# as §1, with “(47).” for “(25).”, “˜250.” for “−250.”, “(48,49).” for “(26,27).”
# Inhibition studies. Inhibition parameters were determined under conditions identical to those described above (see, Initial-Rate Studies) except that [1-HP] was increased to 5.0 μM (˜61×Km) and inhibitor concentration was varied between 0.20-20×Ki. Ki was obtained using a least-squares fit to the following partial inhibition equation (47,50): V/Vax=(Ki+α·[I])/(Ki+[I]), where α is percentage of enzyme turnover remaining at saturating substrates and allosteric inhibitor.
# SULT1A3 [3] = target: T1, SULT1A3; assay: Pre-steady state binding of PAP to SULT1A3 (stopped-flow fluorescence)
# Experimental: The effect of CMP8 on PAP binding to SULT1A3 was monitored using a stopped-flow spectrofluorimeter (λex=290 nm, λem≥330 nm (cutoff filter)). […] Each kobs value was determined in triplicate and the averaged values are shown. kon and koff are given, respectively, by the slopes and intercepts obtained from linear least-squares fitting of the kobs vs [PAP] plots.
# (§2) Pre-Steady State Binding Studies. The pre-steady state binding of PAP to SULT1A3 was monitored via ligand-induced enzyme fluorescence changes in SULT1A3 using an Applied Photophysics SX20 stopped-flow spectrofluorimeter (32). […] All reactions were pseudo first order in [PAP]. The observed rate constant (kobs) at a given [PAP] was taken as the average of three independent progress curves each obtained from a single-exponential fit of 6-9 averaged, binding progress curves. The rate constants, kon and koff, were obtained from the slopes and intercepts predicted by linear least-squares analysis of four-points kobs vs [PAP] plots.
# Given that CMP8 interacts with the SULT1A3 cap, it was reasoned it might inhibit by stabilizing the cap-closed form(s) of the enzyme. To test this hypothesis, the microscopic rate constants for nucleotide binding and release were determined in the presence and absence of saturating CMP8. The binding reactions were monitored via intrinsic fluorescence changes associated with ligand binding (30-32) (see, Methods). The resulting kobs vs [PAP] plots are presented in FIG. 4. kon and koff are obtained, respectively, from the slopes and intercepts of the plots (30,31), see Table C. […] Thus, CMP8 does indeed slow nucleotide release by increasing Kiso and thus stabilizing the closed form of the cap.
# as §2, with “(29).” for “(32).”
# [4] = read-out: Kd, determined by fluorescence titration
# [5] = saturating CMP8 (1.7 μM, 50×Kd)
compound,measurement,setting,value
"4-Hydroxytamoxifen [Compound 4-Tam, reference compound]",Kd,"SULT1A3 [1]; saturating PAP 0.50 mM, SULT 150 nM, read-out: Kd (+PAP)",5400 nM
"CC(C)c1ccc2cc(CO)ccc2n1 [Compound 1, (2-Isopropylquinolin-6-yl)methanol]",inhibition of SULT1A3 (in words),SULT1A3 [2],do not inhibit
same,Kd,SULT1A3 [1]; [4],160 nM
"O=S(=O)(O)Oc1ccc2ccc3cccc4ccc1c2c34 [Compound 1-HP-S, reference compound]",Kd,"SULT1A3 [1]; read-out: Kd, affinity of 1-HP-S for SULT1A3",240000 ± 30000 nM
CC(C)CCc1ccc2cc(CO)ccc2n1 [Compound 2],inhibition of SULT1A3 (in words),SULT1A3 [2],do not inhibit
same,Kd,SULT1A3 [1]; [4],87 nM
Nc1ncnc2c1ncn2[C@@H]1O[C@H](COP(=O)(O)O)[C@@H](OP(=O)(O)O)[C@H]1O [PAP],"koff (s^−1), (−) CMP8",SULT1A3 [3]; nucleotide binding to SULT1A3 without CMP8,2.7 (0.1) s^−1
same,"kon (μM^−1s^−1), (−) CMP8","SULT1A3 [3]; nucleotide binding to SULT1A3 without CMP8, parentheses standard error",6.6 (0.2)^a μM^−1s^−1
same,"koff (s^−1), (+) CMP8",SULT1A3 [3]; [5],1.1 (0.1) s^−1
same,"kon (μM^−1s^−1), (+) CMP8",SULT1A3 [3]; [5],6.3 (0.3) μM^−1s^−1
